ChEMBL document CHEMBL1201862, “PubChem BioAssay data set” (2004)
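Dose response: 5 concentrations. Exposure: 48 h. Format: 96-well plates. Endpoint: linear interpolation; highest concentration if not reached. GI50 is the concentration that inhibits growth by half.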 Calls of active or inactive are those of the source. No stated cut-off is given here; in the data, active = GI50 up to about 1.1 µM and inactive = higher.

Key:
Experiment in all cases: inhibition of tumour cell growth, NCI panel, 48 h
[1] = tested on: 786-0
[2] = tested on: A498
[3] = tested on: A549
[4] = tested on: ACHN
[5] = tested on: CAKI-1
[6] = tested on: DLD-1
[7] = tested on: DMS-114
[8] = tested on: HCC 2998
[9] = tested on: HCT-116
[10] = tested on: HCT-15
[11] = tested on: HL-60
[12] = tested on: HOP-18
[13] = tested on: HOP-62
[14] = tested on: HOP-92
[15] = tested on: HT-29
[16] = tested on: KM12
[17] = tested on: LOX IMVI
[18] = tested on: LXFL 529
[19] = tested on: M14
[20] = tested on: MOLT-4
[21] = tested on: Malme-3M
[22] = tested on: NCI-H226
[23] = tested on: NCI-H23
[24] = tested on: NCI-H460
[25] = tested on: NCI-H522
[26] = tested on: OVCAR-4
[27] = tested on: OVCAR-5
[28] = tested on: RPMI-8226
[29] = tested on: RXF 393
[30] = tested on: RXF 631
[31] = tested on: SF-268
[32] = tested on: SF-295
[33] = tested on: SK-MEL-28
[34] = tested on: SK-MEL-2
[35] = tested on: SK-MEL-5
[36] = tested on: SK-OV-3
[37] = tested on: SN12C
[38] = tested on: SNB-19
[39] = tested on: SNB-75
[40] = tested on: SNB-78
[41] = tested on: SR
[42] = tested on: SW-620
[43] = tested on: TK-10
[44] = tested on: U-251
[45] = tested on: UACC-257
[46] = tested on: XF498
[47] = tested on: CCRF-CEM
[48] = tested on: COLO 205
[49] = tested on: DMS-273
[50] = tested on: EKVX
[51] = tested on: IGROV-1
[52] = tested on: K562
[53] = tested on: KM-20L2
[54] = tested on: M19-MEL
[55] = tested on: OVCAR-3
[56] = tested on: OVCAR-8
[57] = tested on: SF-539
[58] = tested on: UACC-62
[59] = tested on: UO-31

Measured: GI50

CN(C)c1ccc(C2CC(=O)C(C#N)=C(c3ccccc3)NN2C)cc1 (stereo not drawn)
inactive: [1] 8.73 µM | [2] 27.6 µM | [3] 8.04 µM | [4] 11.4 µM | [5] 9.82 µM | [6] 5.25 µM | [7] 30.3 µM | [8] 22.1 µM | [9] 11.5 µM | [11] 3.13 µM | [12] 96.6 µM | [13] 12.8 µM | [14] 21.1 µM | [15] 5.14 µM | [16] 6.04 µM | [17] 4.93 µM | [18] 8.28 µM | [19] 5.04 µM | [20] 8.47 µM | [21] 5.65 µM | [22] 37.4 µM | [23] 32.4 µM | [24] 5.52 µM | [25] 3.56 µM | [26] 31.6 µM | [27] > 100 µM | [28] 13.9 µM | [29] 25.2 µM | [30] 44.7 µM | [31] 17.2 µM | [32] 4.2 µM | [33] > 100 µM | [34] 6.05 µM | [35] 3.54 µM | [36] 12 µM | [37] 13.6 µM | [38] 12.1 µM | [39] 2.05 µM | [40] 50.4 µM | [41] 14.1 µM | [42] 3.97 µM | [43] > 100 µM | [44] 15.5 µM | [45] 6.76 µM | [46] 4.55 µM
4.33 µM: [10]

CCOC(=O)C12CCCC1(O)N(NC(N)=O)C(C)=C2C(=O)OC (stereo not drawn)
> 100 µM: [10]
inactive: [1] > 100 µM | [2] > 100 µM | [3] > 100 µM | [4] > 100 µM | [5] > 100 µM | [47] > 100 µM | [48] > 100 µM | [6] > 100 µM | [7] > 100 µM | [49] > 100 µM | [50] > 100 µM | [8] > 100 µM | [9] > 100 µM | [11] > 100 µM | [12] > 100 µM | [13] > 100 µM | [14] > 100 µM | [15] > 100 µM | [51] > 100 µM | [52] > 100 µM | [53] > 100 µM | [16] > 100 µM | [17] > 100 µM | [18] > 100 µM | [19] > 100 µM | [54] > 100 µM | [20] > 100 µM | [21] > 100 µM | [22] > 100 µM | [23] > 100 µM | [24] > 100 µM | [25] > 100 µM | [55] > 100 µM | [26] > 100 µM | [27] > 100 µM | [56] > 100 µM | [28] > 100 µM | [30] > 100 µM | [31] > 100 µM | [32] > 100 µM | [57] > 100 µM | [33] > 100 µM | [34] > 100 µM | [36] > 100 µM | [37] > 100 µM | [38] > 100 µM | [40] > 100 µM | [42] > 100 µM | [43] > 100 µM | [44] > 100 µM | [45] > 100 µM | [58] > 100 µM | [59] > 100 µM | [46] > 100 µM

Cc1cc(C)c([O-])c(-[n+]2c(-c3ccccc3)cc(-c3ccccc3)cc2-c2ccccc2)c1
11.9 µM: [10]
inactive: [1] 6.78 µM | [3] 12.6 µM | [4] 5.13 µM | [5] 9.27 µM | [47] 1.73 µM | [48] 3.22 µM | [6] 5.19 µM | [7] 3.05 µM | [49] 3.24 µM | [50] 8.07 µM | [8] 3.51 µM | [9] 1.63 µM | [11] 1.62 µM | [12] 5.31 µM | [13] 10.1 µM | [14] 1.73 µM | [15] 2.98 µM | [51] 4.04 µM | [52] 3.21 µM | [53] 2.65 µM | [16] 3.21 µM | [17] 1.72 µM | [18] 2.35 µM | [19] 5.57 µM | [54] 3.88 µM | [20] 2.67 µM | [21] 4.28 µM | [22] 10.1 µM | [23] 3.53 µM | [24] 4.48 µM | [55] 3.67 µM | [26] 4.28 µM | [27] 4.49 µM | [56] 4.33 µM | [28] 2.79 µM | [29] 6.73 µM | [30] 10.2 µM | [31] 7.82 µM | [32] 4.98 µM | [57] 11.2 µM | [33] 4.81 µM | [34] 2.88 µM | [35] 1.94 µM | [36] 13.7 µM | [37] 5.09 µM | [38] 8.89 µM | [39] 6.18 µM | [40] 6.24 µM | [41] 2.6 µM | [42] 4.1 µM | [43] 6.22 µM | [44] 3.38 µM | [45] 2.94 µM | [58] 3.34 µM | [59] 18.9 µM | [46] 2.15 µM
